The record followed here is patent US4831029A, “Condensed cyclic triazole derivatives, pharmaceutical compositions and use” (priority 1986, dated 1989).

Common to all, as to assay type: in vivo
A short description of series [1]: Yohimbine potentiating effect. The method, then: The yohimbine potentiating effect is determined by the method of R. M. Quinton: Brit. […] Scand.
Series [2] in a line: Spasmolytic effect (inhibition of tetracor spasms). To be noted: for ED50: inhibition of tetracor spasms. The text has this:
(§1) The following test methods are used: Motility inhibition test: J. Borsy, E. Csanyi, J. Lazar: J. Arch. Int. Pharmacodyn. 124, 1-2 (1960); Inhibition of tetracor spasms: R. Benzinger, D. Hane: Arch. Int Pharmacodyn. 167, 245-249 (1967).

Series [3] is described as follows: Hexobarbital narcosis potentiating effect. Particulars: for Hexobarbital narcosis potentiating effect T.I. (therapeutical index): narcosis potentiation; for ED50: positive = narcosis time lengthened to at least 2.5-fold of control. The method, then: In the hexobarbital narcosis potentiating test those animals are regarded as showing positive reaction in which the average narcosis time is lengthened to at least 2.5-fold of that of the control group.
The ED50 values are calculated from the data thus transformed.

Series [4] in a line: Motility inhibiting effect. To be noted: for Motility inhibiting effect T.I. (therapeutical index): motility inhibition; for ED50: read-out: Motility inhibiting effect ED50.
Excerpt: as §1

Counter-ions that a name gives are not always drawn.

As to `CN(C)CCC=C1c2ccccc2CCc2ccccc21` [Amitriptilin, reference compound], in series [1] (method of Quinton, read-out: Yohimbin potentiating effect ED50), the ED50 (as a rule, the dose at which the effect has come halfway, by size or by number of responders) came to 12.5 mg/kg.
With `O=c1c2c(n(CCN3CCCCC3)c3nc(N4CCOCC4)nn13)CCN(Cc1ccccc1)C2` [Example 18, 7-Benzyl-2-morpholino-10-(2-piperidinoethyl)-6,7,8,9-tetrahydro-pyrido[4,3-d]-1,2,4-triazolo[1,5-a]pyrimidine-5(10H)-one], in series [2], the “Spasmolytic effect T.I. (therapeutical index)” value came out at 6.6 and the ED50 is 150 mg/kg.
Regarding `CN(C)CCCn1c2c(c(=O)n3nc(N4CCOCC4)nc13)CCN(Cc1ccccc1)C2` [Example 19, 8-Benzyl-10-(3-dimethylaminopropyl)-2-morpholino-6,7,8,9-tetrahydro-pyrido[3,4-d]-1,2,4-triazolo[1,5-a]pyrimidine-5(10H)-one], in series [3], the “Hexobarbital narcosis potentiating effect T.I. (therapeutical index)” value is listed as 6.0 and the 50% effective dose (ED50) was determined as 200 mg/kg. In addition, the “Motility inhibiting effect T.I. (therapeutical index)” value in series [4] is listed as 6.0. Moreover, in series [4] (motility inhibition test), the ED50 is 200 mg/kg.
For the molecule `O=c1c2c(n(CCN3CCCCC3)c3nc(N4CCOCC4)nn13)CN(Cc1ccccc1)CC2` [Example 19c, 8-Benzyl-2-morpholino-10-(2-piperidino-ethyl)-6,7,8,9-tetrahydro-pyrido[3,4-d]-1,2,4-triazolo[1,5-a]pyrimidine-5(10H)-one], in series [2], the “Spasmolytic effect T.I. (therapeutical index)” value is listed as 6.7 and the ED50 turned out to be 150 mg/kg. Further, the “Yohimbin potentiating effect T.I. (therapeutical index)” value in series [1] (T.I.=therapeutical index, yohimbine potentiation) turned out to be 47.
Turning to `CSc1nc2n(CCCN3CCOCC3)c3c(c(=O)n2n1)CN(Cc1ccccc1)CC3` [Example 19g, 7-Benzyl-2-methylthio-10-(3-morpholino-propyl)-6,7,8,9-tetrahydro-pyrido[4,3-d]-1,2,4-triazolo[1,5-a]pyrimidine-5(10H)-one fumarate], in series [2], the “Spasmolytic effect T.I. (therapeutical index)” value amounted to 8.5 and the ED50 turned out to be 100 mg/kg.
On the same counts, the results for `O=c1c2c(n(CCN3CCCC3)c3nc(N4CCOCC4)nn13)CN(Cc1ccccc1)CC2` [Example 20, 8-Benzyl-2-morpholino-10-(2-pyrrolidinoethyl)-6,7,8,9-tetrahydro-pyrido[3,4-d]-1,2,4-triazolo[1,5-a]pyrimidine-5(10H)-one] are 6.5 and 155 mg/kg.
Turning to `CCCC(C)(COC(N)=O)COC(N)=O` [Meprobamat, reference compound], in series [3], the “Hexobarbital narcosis potentiating effect T.I. (therapeutical index)” value was determined as 4.1 and the ED50 turned out to be 260 mg/kg. In series [4], the “Motility inhibiting effect T.I. (therapeutical index)” value is given as 4.1 and the ED50 stood at 270 mg/kg.
In series [2], `CN1C(=O)OC(C)(C)C1=O` [Trimetadion, reference compound] showed a median effective dose (ED50) of 490 mg/kg.
